Measured values reported in patent US10517863B2, “Trilobine and its natural analogs for use as a drug” (PIERRE FABRE MEDICAMENT, priority 2015, dated 2019).

Tests used:
[1] = system: CMV promoter in KG-1 Luc cells; assay: CMV promoter analysis by NOMe-Seq: DNA methylation and nucleosome occupancy; format: cell-based, human; details: at 5 μM, 24 h
Method: Using the Nucleosome Occupancy and Methylome Sequencing (NOMe-Seq) technique, the methylation status of the CMV promoter and the position of the nucleosomes on such promoter were both analysed.
NOMe-seq is a modified version of the methylation-dependent single promoter assay described by Miranda et al. (Curr Protoc Mol Biol. 2010 21.17.1-16) and the methylase-based DNA assay was performed as previously described with minor modifications (Hochedlinger K, Plath K 2009; Sharma et al. 2010, You et al. 2011, Kelly et al. 2012). After nuclei extraction, GpC methyltransferase (M.CviPI; New England Biolabs) reactions were done in M.CviPI reaction buffer. GpC methyltransferase treatment was followed by DNA extraction, sodium bisulfite conversion, PCR amplification of the region of interest, cloning, and sequencing of individual clones to reveal the structure of single replicas as functional units. After treatment with the compounds or with DMSO, KG-1 Luc cells were centrifuged for 5 min at 500×g. Cell pellets were washed in ice-cold PBS, resuspended in 1 mL of ice-cold nuclei buffer [10 mM Tris (pH 7.4), 10 mM NaCl, 3 mM MgCl2, 0.1 mM EDTA, and 0.5% Nonidet P-40, plus protease inhibitors] per 2×10^6 cells, and incubated on ice for 10 min. […]

[2] = molecular target: T1, His-DNMT1 (182 kDa, human) (Homo sapiens, UniProt P26358); assay: hDNMT1 assay ([methyl-3H] SAM Flashplate); format: biochemical; details: read-out: hDNMT1 percentage of inhibition
T1 construct: His; made in house
T1 sequence (P26358 whole entry): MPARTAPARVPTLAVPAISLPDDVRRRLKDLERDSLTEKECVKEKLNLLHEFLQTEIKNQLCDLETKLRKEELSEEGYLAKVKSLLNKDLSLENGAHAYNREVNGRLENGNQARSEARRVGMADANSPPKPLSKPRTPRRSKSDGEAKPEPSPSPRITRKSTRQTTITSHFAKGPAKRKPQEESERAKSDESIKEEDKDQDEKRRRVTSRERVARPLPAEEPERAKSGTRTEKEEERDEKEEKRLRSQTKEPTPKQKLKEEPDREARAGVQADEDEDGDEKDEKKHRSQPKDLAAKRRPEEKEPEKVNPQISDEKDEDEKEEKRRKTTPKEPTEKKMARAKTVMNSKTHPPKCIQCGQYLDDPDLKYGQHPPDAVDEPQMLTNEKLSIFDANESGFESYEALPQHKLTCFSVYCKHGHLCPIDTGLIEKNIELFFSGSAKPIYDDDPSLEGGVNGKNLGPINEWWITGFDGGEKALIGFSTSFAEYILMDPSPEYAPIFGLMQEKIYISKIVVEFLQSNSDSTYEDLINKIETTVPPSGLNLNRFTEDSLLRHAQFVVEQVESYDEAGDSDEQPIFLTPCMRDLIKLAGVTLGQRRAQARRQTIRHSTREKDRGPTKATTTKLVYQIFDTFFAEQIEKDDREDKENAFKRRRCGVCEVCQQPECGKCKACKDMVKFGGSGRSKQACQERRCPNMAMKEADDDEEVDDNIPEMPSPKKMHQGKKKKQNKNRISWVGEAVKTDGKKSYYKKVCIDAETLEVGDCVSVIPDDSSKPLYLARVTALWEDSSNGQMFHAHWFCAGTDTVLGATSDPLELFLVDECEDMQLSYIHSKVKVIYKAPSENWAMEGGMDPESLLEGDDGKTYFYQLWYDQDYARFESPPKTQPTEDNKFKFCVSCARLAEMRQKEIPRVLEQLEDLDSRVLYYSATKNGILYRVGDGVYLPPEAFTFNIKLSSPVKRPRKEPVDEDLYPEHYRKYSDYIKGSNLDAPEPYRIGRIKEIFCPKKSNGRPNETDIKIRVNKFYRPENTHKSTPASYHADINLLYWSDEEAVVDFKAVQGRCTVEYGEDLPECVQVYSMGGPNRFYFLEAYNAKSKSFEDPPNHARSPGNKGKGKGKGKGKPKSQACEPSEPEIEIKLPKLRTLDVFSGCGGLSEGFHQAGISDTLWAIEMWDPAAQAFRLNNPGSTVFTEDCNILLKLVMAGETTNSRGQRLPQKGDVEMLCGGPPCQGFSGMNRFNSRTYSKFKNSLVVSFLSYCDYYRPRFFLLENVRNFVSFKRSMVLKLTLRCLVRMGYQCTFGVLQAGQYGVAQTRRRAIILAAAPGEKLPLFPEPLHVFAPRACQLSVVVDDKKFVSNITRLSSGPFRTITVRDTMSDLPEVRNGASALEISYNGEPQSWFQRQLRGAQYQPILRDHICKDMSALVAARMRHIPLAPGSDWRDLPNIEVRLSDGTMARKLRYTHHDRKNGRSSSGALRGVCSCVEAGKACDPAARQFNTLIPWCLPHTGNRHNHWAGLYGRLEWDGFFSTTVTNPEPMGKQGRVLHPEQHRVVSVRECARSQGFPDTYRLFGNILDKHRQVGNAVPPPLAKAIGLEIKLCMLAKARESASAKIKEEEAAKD
Method: His-DNMT1 (182 kDa, human) was cloned, expressed and purified as described in the literature (Halby et al. ChemBioChem 2012, 13, 157-165). The reaction was performed in a […] total reaction volume in low volume NBS™ 384-well microplates (Corning), containing the tested compound (up to 1% DMSO), 1 μM of a SAM/[methyl-^3H] SAM (3 TBq/mmol, PerkinElmer) mix in a ratio of 3-to-1 (isotopic dilution 1*:3), 0.3 μM of biotinylated hemimethylated DNA duplex (5′-GATmCGCmCGATGmCGmCGAATmCGmCGATmCGATGmCGAT-3′ and BIOT-5′-[…]-3′), and 90 nM of DNMT1 in methylation buffer (20 mM HEPES pH 7.2, 1 mM EDTA, 50 mM KCl, 25 μg/mL BSA). The reaction was incubated at 37° C. for 2 hours. 8 μL, are then transferred into a streptavidin 96-well scintillant coated Flashplate™ (PerkinElmer) containing 190 μL of 20 μM SAH in 50 mM Tris-HCl pH 7.4. The Flashplate™ was agitated at room temperature for 1 hour and read in 200 μL of 50 mM Tris-HCl pH 7.4 on TopCount NXT (PerkinElmer). The percentage of inhibition is reported. The formula used to calculate the percentage of inhibition is [(X−Y)/X]×100, where X is the signal determined in the absence of the inhibitor and Y is the signal obtained in the presence of the inhibitor.

COc1ccc2cc1Oc1ccc(cc1)C[C@@H]1NCCc3cc(OC)c4c(c31)Oc1cc3c(cc1O4)CCN(C)[C@H]3C2 [Compound 1, Trilobine]
Chromatin accessibility, KG1 CMV-Luc model [1]: 1.9 ± 0.1 | DNA demethylation, KG1 CMV-Luc model [1]: −37 ± 8% | inhibition at 32 µM [2]: 50%
